Where a name gives a salt, the structure may show the parent alone.
Experiments:
Candida albicans = assay: inhibitory effect, antifungal test disk (Test Example 2); format: cell-based; details: 8 mm disk, 0.005 g active ingredient
Source text: (§1) Each test fungal liquid was mixed with a Sabouraud's agar medium containing 0.1% of Tween 80 to form a multilayered fungal agar film, which was then solidified.

[1] = system: Trichophyton mentagrophytes; assay: as above; format: cell-based; details: 8 mm disk, 0.005 g active ingredient
Source text: as §1

Cryptococcus neoformans = assay: as above; format: cell-based; details: 8 mm disk, 0.005 g active ingredient
Source text: as §1

Aspergillus fumigatus = assay: as above; format: cell-based; details: 8 mm disk, 0.005 g active ingredient
Source text: as §1

[2] = solubility in phosphate buffer solution
[3] = acute toxicity, LD50 oral; details: mouse, in vivo, comparison with NT-72 orally in mice, source not stated
[4] = system: medical fungi (Aspergillus, Candida, Trichophyton); assay: growth inhibition of fungi (general statements); format: cell-based
Method: Each of the components is separated and tested with respect to the activity of growth inhibition of Aspergillus fumigatus, Candida albicans and Trichophyton mentagrophytes, respectively, according to the disk method.
Using 0.01 ml. of the resulting solution, the growth inhibitory effect of each powder against fungi was tested according to the disk method.

SMILES	inhibitory circle diameter (Candida albicans)	inhibitory circle diameter (Trace) (Candida albicans)	inhibitory circle diameter [1]	inhibitory circle diameter (Trace) (Cryptococcus neoformans; trace)	inhibitory circle diameter (Aspergillus fumigatus)	inhibitory circle diameter (Trace) (Aspergillus fumigatus; trace)	solubility in the phosphate buffer solution [2]	inhibitory circle diameter (Cryptococcus neoformans)	LD50 [3]	activity of butanol extract after sodium borohydride reduction [4]
C[C@@H]1[C@H](O)[C@@H](C)/C=C/C=C/C=C/C=C/C=C/C=C/C=C/[C@H](O[C@@H]2O[C@H](C)[C@@H](O)[C@H](N)[C@@H]2O)C[C@@H]2O[C@](O)(C[C@@H](O)C[C@@H](O)[C@H](O)CC[C@@H](O)C[C@@H](O)CC(=O)O[C@H]1C)C[C@H](O)[C@H]2C(=O)O [Amphotericin B]	11 mm	14 mm	8.5 mm							
Clc1ccccc1C(c1ccccc1)(c1ccccc1)n1ccnc1 [Byb 5097]	17 mm	22 mm	24 mm	18 mm	12.5 mm	18 mm	not sufficiently soluble			
C[C@@H]1[C@H](O)[C@@H](C)/C=C/C=C/CC/C=C/C=C/C=C/C=C/C(O[C@H]2O[C@H](C)[C@@H](O)[C@H](N)[C@@H]2O)CC2O[C@](O)(CC(O)C(O)CCC(O)CC(O)CC(O)CC(=O)O[C@H]1C)CC(O)C2C(=O)O (some centres unmarked) [Nystatin]	21 mm		12.5 mm		12 mm		not sufficiently soluble	11 mm		
COc1ccc2cc3[n+](cc2c1OC)CCc1cc2c(cc1-3)OCO2 [berberine hydrochloride]									60 to 70 mg/kg	does not show the activity

Reference: patent publication US4200629A, “Anti-fungal substance and preparing method thereof” (priority 1977, dated 1980)
